4 molecules from patent US7601752B2, “Pyrrolidine derivatives” (Hoffmann-La Roche Inc., priority 2005, dated 2009) can be followed below.

In this test the target is T1, human factor Xa (Homo sapiens, UniProt P00742).
T1 construct: purchased Enzyme Research Laboratories
T1 sequence (P00742 235-488 limits assumed): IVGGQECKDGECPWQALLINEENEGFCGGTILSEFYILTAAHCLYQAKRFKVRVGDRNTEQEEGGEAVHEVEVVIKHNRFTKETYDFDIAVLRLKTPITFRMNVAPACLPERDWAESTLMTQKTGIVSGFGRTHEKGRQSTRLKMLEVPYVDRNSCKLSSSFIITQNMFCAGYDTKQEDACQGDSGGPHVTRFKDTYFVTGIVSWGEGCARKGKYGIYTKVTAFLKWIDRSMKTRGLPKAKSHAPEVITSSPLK
T1 sequence (P00742 41-179 partner limits assumed): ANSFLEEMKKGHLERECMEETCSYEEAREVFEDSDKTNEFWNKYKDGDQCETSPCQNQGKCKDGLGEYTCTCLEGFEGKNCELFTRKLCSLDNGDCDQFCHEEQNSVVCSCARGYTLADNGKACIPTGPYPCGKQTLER
The test is described as follows: Chromogenic peptide substrate (S-2222) assay, inhibition of coagulation factor Xa. Conditions: apparent dissociation constant by Cheng-Prusoff from IC50; human factor Xa 3 nM, substrate S-2222, HNPT buffer pH 7.8, room temperature. It is filed as biochemical. The method, then: Factor Xa activity was measured spectrophotometrically in microtiter plates in a final volume of 150 μl using the following conditions: Inhibition of human factor Xa (Enzyme Research Laboratories) was tested at an enzyme concentration of 3 nM using the chromogenic substrate S-2222 (Chromogenix AB, Mölndal, Sweden) at […]. The reaction kinetics of the enzyme and the substrate were linear with both time and the enzyme concentration. The inhibitors were dissolved in DMSO and tested at various concentrations up to 100 μM. The inhibitors were diluted using HNPT buffer consisting of HEPES 100 mM, NaCl 140 mM, PEG 6000 0.1% and Tween 80 0.02%, pH 7.8. The cleavage of S-2222 by human factor Xa was followed at 405 nm for 5 minutes at room temperature. The velocity of the reaction was determined by the autoreader from the slope of the linear regression fit to 7 time points (1 minute). The initial velocity for each inhibitor concentration was determined by the slope of at least 4 time points in the linear phase by a linear regression fit […]. Apparent dissociation constants Ki were calculated according to Cheng and Prusoff [Cheng, Y. C.; Prusoff, W. H. Relationship between the inhibition constant (Ki) and the concentration of the inhibitor that causes 50 percent inhibition (IC50) of an enzyme reaction. Biochem. Pharmacol. 1973, 22, 3099-3108.] based on the IC50 and the respective Km, determined previously (Ki=IC50/(1+S/Km)). The Km for the substrate used was determined under the conditions of the test with at least 5 substrate concentrations ranging from 0.5 to 15 times Km. [Lottenberg R, Hall J A, Blinder M, Binder E P, Jackson C M., The action of thrombin on peptide p-nitroanilide substrates. Substrate selectivity and examination of hydrolysis under different reaction conditions. Biochim Biophys Acta. 1983 Feb. 15; 742(3):539-57]. According to Eadie [Eadie G. S. The inhibition of cholinesterase by physostigmine and prostigmine. J. Biol. Chem. 1942, 146, 85-93.], the Km for S-2222 amounted to 613 μM.
Regarding `O=C(N[C@H]1CC(C(=O)Nc2ccc(-n3ccccc3=O)cc2F)N(CCC(F)(F)F)C1)c1ccc(Cl)s1` (mixture of isomers) [Example 14, (S)-4-[(5-Chloro-thiophene-2-carbonyl)-amino]-1-(3,3,3-trifluoro-propyl)-pyrrolidine-2-carboxylic acid[2-fluoro-4-(2-oxo-2H-pyridin-1-yl)-phenyl]-amide], the Ki is 0.042 µM. To `O=C(N[C@@H]1CN[C@H](C(=O)Nc2ccc(-n3ccccc3=O)cc2F)C1)c1ccc(Cl)s1` [Example 2, (2S,4S)-4-[(5-Chloro-thiophene-2-carbonyl)-amino]-pyrrolidine-2-carboxylic acid[2-fluoro-4-(2-oxo-2H-pyridin-1-yl)-phenyl]-amide trifluoro-acetate] belongs 0.023 µM. To `N#CCN1C[C@@H](NC(=O)c2ccc(Cl)s2)C[C@H]1C(=O)Nc1ccc(-n2ccccc2=O)cc1F` [Example 6, (2S,4S)-4-[(5-Chloro-thiophene-2-carbonyl)-amino]-1-cyanomethyl-pyrrolidine-2-carboxylic acid[2-fluoro-4-(2-oxo-2H-pyridin-1-yl)-phenyl]-amide] belongs 0.046 µM. To `CC(C)(C)OC(=O)N1C[C@@H](NC(=O)c2ccc(Cl)s2)C[C@H]1C(=O)Nc1ccc(-n2ccncc2=O)cc1F` [Example 21, (2S,4S)-4-[(5-Chloro-thiophene-2-carbonyl)-amino]-2-[2-fluoro-4-(2-oxo-2H-pyrazin-1-yl)-phenylcarbamoyl]-pyrrolidine-1-carboxylic acid tert-butyl ester] belongs 0.065 µM.
